{"source": "patent US20230357419A1", "about": "“METHODS FOR TREATING OR […] DISORDERS” (priority 2022, published 2023)", "key": {"[1]": {"tested_on": "C57BL/6J mice", "test": "Repeated nitroglycerin (NTG) administration-induced behavioral sensitization: facial mechanical thresholds (von Frey), hyperalgesic priming, facial pain score", "type": "in vivo, mouse", "conditions": "female C57BL/6J", "procedure": "Repeated nitroglycerin (NTG) administration-induced behavioral sensitization: To model chronic migraine headache, mice received repetitive intraperitoneal (i.p.) injections of nitric oxide (NO) donor NTG (10 mg/kg and 10 ml/kg in saline with 1% propylene glycol) once every 2 days for 5 times as described previously. The control mice received vehicle (saline with 1% propylene glycol, 10 ml/kg) injections every 2 days. Facial mechanical thresholds were measured at baseline and two days after each injection (before the next treatment). After the facial mechanical threshold returned to the baseline level, mice received daily i.p. injections of low-dose NTG (0.1 mg/kg). Facial mechanical thresholds were measured every 2 days to assess hyperalgesic priming.\nThe hair on the mouse forehead (above and between the eyes) was shaved the day before testing. […] A positive response was determined by the following criteria as previously described: mouse vigorously stroked its face with the forepaw, head withdrawal from the stimulus, or head shaking. […]\nFacial pain score—aversiveness to facial mechanical stimuli: To measure the aversiveness to facial mechanical stimuli, the responses of mice to individual von Frey filaments were scored based on the most aversive behavior they display: 0) no responses; 1) detection: eye squinting, facial skin crinkling and/or a small head shaking; 2) withdrawal: head withdrawal from the filament and/or forepaw stroking of face once; 3) vigorous forepaw stroking of face 2 or more times; and 4) vigorous head shaking and/or attacking the filament.\nFor C57BL/6J mice, responses were measured to 0.04 gram (g), 0.07 g and 0.16 g von Frey filaments (3 applications each in ascending order). […]\nMice received intraperitoneal (i.p.) injections of NTG (10 mg/kg) or vehicle (saline with 1% propylene glycol, 10 ml/kg) once every 2 days for 5 times as described previously. Facial mechanical thresholds were measured at baseline and two days after each injection. […]"}, "[2]": {"tested_on": "mice", "conditions": "intrathecal, 3 μg; cited from earlier work"}}, "data": [{"smiles": "Cc1ccc2c(c1)C1(CCN(CCc3nc(-c4ccccc4)oc3C)CC1)OC(=O)N2", "note": "[RS504393]", "values": [{"measurement": "NTG-induced acute or persistent facial skin hypersensitivity", "setting": "[1]; 3 μg in 10 μl under periorbital skin, 30 minutes before and 24 hours post-NTG", "result": "did not reduce NTG-induced acute or persistent facial skin hypersensitivity"}, {"measurement": "facial mechanical threshold (NTG-induced persistent facial skin hypersensitivity)", "setting": "[1]; 3 mg/kg i.p., 8 daily injections started after established hypersensitivity, day 5-11", "result": "returned to basal level after 2 days of RS504393 treatment"}, {"measurement": "hyperalgesic priming (low-dose NTG-induced facial skin hypersensitivity)", "setting": "[1]; 3 mg/kg i.p., 8 daily injections, low-dose NTG day 20-28", "result": "low-dose NTG injections still produced robust facial skin hypersensitivity"}, {"measurement": "tibial fracture/cast immobilization-induced mechanical allodynia", "setting": "[2]", "result": "significantly attenuated tibial fracture/cast immobilization-induced mechanical allodynia"}]}]}
